Test results published in ChEMBL document CHEMBL1201862, “PubChem BioAssay data set” (2004).
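Exposure lasted 48 hours, with cells grown in 96-well plates and compounds tested at five concentrations. The concentration for 50% growth inhibition is given as GI50.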 The source made the active and inactive calls. No stated cut-off is given here; in the data, active = GI50 up to about 1.1 µM and inactive = higher.

Tests used:
Experiment in all cases: inhibition of tumour cell growth, NCI panel, 48 h
RXF 631 = system: RXF 631
DMS-114 = system: DMS-114
XF498 = system: XF498
KM-20L2 = system: KM-20L2
HOP-18 = system: HOP-18
SNB-78 = system: SNB-78
LXFL 529 = system: LXFL 529
DMS-273 = system: DMS-273

Measured: GI50

CC(C)(C)C(=O)C1CC(=O)c2ccccc2C1=O (centres undefined)
inactive: RXF 631 36.7 µM | DMS-114 33.9 µM | XF498 34.4 µM | KM-20L2 38 µM | HOP-18 37.5 µM | SNB-78 27.5 µM

N#CC(C(=O)C(N)=O)c1ccccc1Cl (centres undefined)
inactive: RXF 631 > 100 µM | LXFL 529 > 100 µM | DMS-114 > 100 µM | XF498 > 100 µM | KM-20L2 > 100 µM | DMS-273 > 100 µM | HOP-18 > 100 µM

COCCN1C2=CCCCC2=Nc2c1nc(N)[nH]c2=O
inactive: RXF 631 > 100 µM | LXFL 529 > 100 µM | DMS-114 > 100 µM | XF498 > 100 µM | KM-20L2 > 100 µM | DMS-273 > 100 µM | HOP-18 > 100 µM | SNB-78 > 100 µM

CC1(C)COC(c2cccnc2/C=N/O)=N1
inactive: RXF 631 > 100 µM | LXFL 529 > 100 µM | XF498 > 100 µM | KM-20L2 > 100 µM | DMS-273 > 100 µM | HOP-18 > 100 µM | SNB-78 > 100 µM

c1ccc(SC2(Sc3ccccc3)CCCC2)cc1
inactive: RXF 631 > 100 µM | DMS-114 > 100 µM | XF498 > 100 µM | KM-20L2 > 100 µM | DMS-273 > 100 µM | SNB-78 > 100 µM
